According to patent publication US9295673B2, “Combination of mTOR inhibitors and P13-kinase inhibitors, and uses thereof” (Intellikine LLC, priority 2011, dated 2016):
Like-named read-outs stand apart in the source and are kept apart here.

Tests used:
[1] = test system: PC3; test: PC3 proliferation (Alamar Blue); assay type: cell-based; conditions: Homo sapiens, PC-3; PC3 cells
[2] = biological target: PI3K α (Homo sapiens, UniProt P42336); test: PI 3-Kinase (human) HTRF assay, PI3K α; conditions: read-out: PI3K α IC50
[3] = biological target: PI3K δ (Homo sapiens, UniProt O00329); test: PI 3-Kinase (human) HTRF assay, PI3K δ; conditions: read-out: PI3K δ IC50
[4] = biological target: T1, mTOR (Homo sapiens, UniProt P42345); test: mTOR kinase inhibition assay (radiometric or LanthaScreen TR-FRET); assay type: biochemical; conditions: read-out: mTORC IC50
T1 construct: purchased Invitrogen

[5] = biological target: PI3K β (Homo sapiens, UniProt P42338); test: PI 3-Kinase (human) HTRF assay, PI3K β; conditions: read-out: PI3K β IC50
[6] = biological target: PI3K γ (Homo sapiens, UniProt P48736); test: PI 3-Kinase (human) HTRF assay, PI3K γ; conditions: read-out: PI3K γ IC50
Chain of PI3K γ (P48736 whole entry): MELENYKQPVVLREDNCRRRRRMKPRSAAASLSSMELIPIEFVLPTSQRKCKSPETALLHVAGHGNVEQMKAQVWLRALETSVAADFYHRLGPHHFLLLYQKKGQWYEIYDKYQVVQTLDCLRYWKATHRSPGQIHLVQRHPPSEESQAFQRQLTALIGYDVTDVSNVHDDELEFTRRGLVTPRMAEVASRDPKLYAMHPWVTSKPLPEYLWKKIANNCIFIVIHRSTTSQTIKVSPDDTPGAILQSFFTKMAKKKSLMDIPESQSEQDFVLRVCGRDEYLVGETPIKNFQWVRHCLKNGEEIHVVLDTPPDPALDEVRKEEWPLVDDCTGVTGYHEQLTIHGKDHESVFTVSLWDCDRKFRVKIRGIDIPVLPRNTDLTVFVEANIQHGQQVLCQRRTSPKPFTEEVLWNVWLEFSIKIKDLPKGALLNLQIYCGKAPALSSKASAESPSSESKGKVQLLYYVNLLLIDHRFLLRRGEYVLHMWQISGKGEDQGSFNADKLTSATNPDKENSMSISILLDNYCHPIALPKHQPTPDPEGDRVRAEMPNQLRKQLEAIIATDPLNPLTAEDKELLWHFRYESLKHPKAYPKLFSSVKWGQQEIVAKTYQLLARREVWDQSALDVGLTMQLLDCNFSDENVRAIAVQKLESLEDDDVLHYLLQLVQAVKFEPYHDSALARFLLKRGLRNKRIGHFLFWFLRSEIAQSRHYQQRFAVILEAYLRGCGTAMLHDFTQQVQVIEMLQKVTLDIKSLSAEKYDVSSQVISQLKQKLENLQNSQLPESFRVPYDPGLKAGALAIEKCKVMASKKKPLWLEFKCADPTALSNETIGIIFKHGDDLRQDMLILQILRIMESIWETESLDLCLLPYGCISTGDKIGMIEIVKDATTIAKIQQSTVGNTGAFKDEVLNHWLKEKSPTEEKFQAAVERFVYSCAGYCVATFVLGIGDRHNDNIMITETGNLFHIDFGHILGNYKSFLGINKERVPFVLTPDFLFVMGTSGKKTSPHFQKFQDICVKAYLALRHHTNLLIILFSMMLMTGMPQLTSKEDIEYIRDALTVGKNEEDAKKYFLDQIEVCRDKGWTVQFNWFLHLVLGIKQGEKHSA

Chain of PI3K α (P42336 whole entry): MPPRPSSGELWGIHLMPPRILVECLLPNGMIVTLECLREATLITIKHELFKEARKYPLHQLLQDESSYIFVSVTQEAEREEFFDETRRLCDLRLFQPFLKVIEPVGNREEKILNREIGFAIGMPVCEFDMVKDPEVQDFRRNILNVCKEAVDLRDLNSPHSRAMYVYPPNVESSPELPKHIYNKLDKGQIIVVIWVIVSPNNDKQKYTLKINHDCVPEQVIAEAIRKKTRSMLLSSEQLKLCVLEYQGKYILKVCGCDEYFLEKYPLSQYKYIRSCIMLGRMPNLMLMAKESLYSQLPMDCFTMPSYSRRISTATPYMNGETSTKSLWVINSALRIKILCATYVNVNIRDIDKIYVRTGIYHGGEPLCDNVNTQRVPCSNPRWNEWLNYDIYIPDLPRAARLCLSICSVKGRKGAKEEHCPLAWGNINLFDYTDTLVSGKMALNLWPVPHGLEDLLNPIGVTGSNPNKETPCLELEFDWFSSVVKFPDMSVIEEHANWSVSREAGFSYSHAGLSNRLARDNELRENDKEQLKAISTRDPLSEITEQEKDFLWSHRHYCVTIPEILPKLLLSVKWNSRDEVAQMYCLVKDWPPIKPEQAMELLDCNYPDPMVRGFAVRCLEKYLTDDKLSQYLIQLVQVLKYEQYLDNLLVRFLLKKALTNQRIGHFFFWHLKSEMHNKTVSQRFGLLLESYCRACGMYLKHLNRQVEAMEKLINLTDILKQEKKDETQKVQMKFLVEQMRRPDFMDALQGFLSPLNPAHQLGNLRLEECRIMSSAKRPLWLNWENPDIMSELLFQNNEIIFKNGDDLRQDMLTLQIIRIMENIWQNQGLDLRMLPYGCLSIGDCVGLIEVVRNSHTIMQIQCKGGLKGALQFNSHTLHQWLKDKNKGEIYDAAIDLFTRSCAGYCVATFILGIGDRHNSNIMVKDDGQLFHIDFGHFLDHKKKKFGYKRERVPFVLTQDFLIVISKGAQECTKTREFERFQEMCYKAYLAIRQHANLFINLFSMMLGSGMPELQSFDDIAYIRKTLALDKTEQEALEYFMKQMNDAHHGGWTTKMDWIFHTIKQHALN
Chain of PI3K α (P27986 whole entry partner): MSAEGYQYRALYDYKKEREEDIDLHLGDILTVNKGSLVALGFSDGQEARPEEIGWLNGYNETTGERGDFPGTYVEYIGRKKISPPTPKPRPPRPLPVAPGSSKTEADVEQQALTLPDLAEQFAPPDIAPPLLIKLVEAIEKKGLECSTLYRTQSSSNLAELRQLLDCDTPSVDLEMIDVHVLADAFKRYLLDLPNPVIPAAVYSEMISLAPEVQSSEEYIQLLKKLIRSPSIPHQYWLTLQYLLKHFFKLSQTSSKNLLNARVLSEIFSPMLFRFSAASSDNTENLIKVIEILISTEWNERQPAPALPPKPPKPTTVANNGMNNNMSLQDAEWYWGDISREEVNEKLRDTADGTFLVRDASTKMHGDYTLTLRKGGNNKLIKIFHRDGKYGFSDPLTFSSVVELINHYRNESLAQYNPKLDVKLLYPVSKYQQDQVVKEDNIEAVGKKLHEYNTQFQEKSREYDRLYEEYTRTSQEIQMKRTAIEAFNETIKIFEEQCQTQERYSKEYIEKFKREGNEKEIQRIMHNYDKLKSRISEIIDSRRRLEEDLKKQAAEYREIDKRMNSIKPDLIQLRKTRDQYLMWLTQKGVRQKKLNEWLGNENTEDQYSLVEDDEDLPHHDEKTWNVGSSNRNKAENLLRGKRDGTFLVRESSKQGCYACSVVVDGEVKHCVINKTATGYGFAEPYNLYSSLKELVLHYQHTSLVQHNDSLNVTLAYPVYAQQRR
Chain of PI3K δ (O00329 whole entry): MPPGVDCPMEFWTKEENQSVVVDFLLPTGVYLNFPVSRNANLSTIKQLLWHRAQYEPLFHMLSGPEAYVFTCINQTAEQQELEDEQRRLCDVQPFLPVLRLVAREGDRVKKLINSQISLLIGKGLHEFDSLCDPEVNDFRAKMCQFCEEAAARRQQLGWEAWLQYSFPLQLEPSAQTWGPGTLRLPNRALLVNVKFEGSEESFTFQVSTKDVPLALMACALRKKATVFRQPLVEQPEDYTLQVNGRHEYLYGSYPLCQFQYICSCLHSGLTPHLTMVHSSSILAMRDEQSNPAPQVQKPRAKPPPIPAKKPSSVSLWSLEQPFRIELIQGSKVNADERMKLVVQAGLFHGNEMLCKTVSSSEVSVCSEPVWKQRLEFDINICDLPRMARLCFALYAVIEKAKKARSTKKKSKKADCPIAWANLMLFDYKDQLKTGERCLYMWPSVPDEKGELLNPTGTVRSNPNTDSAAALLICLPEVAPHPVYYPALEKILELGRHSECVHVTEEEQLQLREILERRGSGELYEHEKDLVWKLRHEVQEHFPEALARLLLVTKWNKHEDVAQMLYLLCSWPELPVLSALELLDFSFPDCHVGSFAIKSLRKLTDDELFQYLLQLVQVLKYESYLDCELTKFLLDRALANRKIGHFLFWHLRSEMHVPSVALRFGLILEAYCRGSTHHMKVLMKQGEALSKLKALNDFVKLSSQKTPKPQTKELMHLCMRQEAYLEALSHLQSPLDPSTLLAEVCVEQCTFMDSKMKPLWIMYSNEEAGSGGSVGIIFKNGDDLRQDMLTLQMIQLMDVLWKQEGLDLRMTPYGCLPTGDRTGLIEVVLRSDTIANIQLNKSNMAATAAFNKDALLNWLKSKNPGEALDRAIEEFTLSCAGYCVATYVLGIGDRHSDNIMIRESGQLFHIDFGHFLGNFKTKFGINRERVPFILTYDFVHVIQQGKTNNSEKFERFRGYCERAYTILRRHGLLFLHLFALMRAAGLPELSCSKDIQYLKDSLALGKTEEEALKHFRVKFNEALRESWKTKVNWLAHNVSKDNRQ
Chain of PI3K δ (P27986 whole entry partner): as the sequence (P27986 whole entry partner) above
Chain of PI3K β (P42338 whole entry): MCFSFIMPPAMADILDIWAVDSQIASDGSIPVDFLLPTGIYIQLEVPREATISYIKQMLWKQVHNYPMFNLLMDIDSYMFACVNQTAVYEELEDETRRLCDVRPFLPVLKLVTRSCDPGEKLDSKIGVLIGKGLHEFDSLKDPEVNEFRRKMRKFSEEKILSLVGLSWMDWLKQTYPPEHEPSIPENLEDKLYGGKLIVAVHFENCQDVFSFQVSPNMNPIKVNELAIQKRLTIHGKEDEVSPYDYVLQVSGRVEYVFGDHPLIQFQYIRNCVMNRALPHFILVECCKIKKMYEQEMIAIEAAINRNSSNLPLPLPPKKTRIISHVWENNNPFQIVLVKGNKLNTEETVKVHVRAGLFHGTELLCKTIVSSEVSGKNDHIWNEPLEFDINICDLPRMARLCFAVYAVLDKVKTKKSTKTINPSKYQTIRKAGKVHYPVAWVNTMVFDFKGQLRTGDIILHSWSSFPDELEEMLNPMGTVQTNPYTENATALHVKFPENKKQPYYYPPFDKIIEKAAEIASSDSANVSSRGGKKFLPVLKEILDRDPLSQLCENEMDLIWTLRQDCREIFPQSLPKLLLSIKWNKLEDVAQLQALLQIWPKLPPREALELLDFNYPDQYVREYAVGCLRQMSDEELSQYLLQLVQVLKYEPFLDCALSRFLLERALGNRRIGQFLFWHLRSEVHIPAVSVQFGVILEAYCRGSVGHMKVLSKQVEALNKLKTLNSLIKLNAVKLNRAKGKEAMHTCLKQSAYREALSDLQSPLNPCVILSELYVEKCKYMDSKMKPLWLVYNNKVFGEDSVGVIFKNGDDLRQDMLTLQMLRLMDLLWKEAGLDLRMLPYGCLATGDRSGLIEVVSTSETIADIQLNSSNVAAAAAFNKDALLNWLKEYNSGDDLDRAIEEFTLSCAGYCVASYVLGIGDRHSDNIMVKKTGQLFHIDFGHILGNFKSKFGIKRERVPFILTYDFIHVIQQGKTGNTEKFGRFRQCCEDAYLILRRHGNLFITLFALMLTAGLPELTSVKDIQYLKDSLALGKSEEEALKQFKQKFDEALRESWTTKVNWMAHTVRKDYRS
Chain of PI3K β (P27986 whole entry partner): as the sequence (P27986 whole entry partner) above

IC50 [1] | Compound | IC50 [3] | IC50 ([4]; Table 2) | IC50 ([5]; Table 2) | IC50 ([6]; Table 2) | other results
< 1000 nM | COc1ncc(-c2ccc3ncc(C(=O)N4CCOCC4)n3c2)cc1NS(=O)(=O)c1cccnc1 [Compound 462] | – | – | – | – | –
– | CC(C)N1CCC(n2nc(-c3cc4c(Cl)ccc(O)c4[nH]3)c3c(N)ncnc32)CC1 [Compound 71] | > 500 nM | < 100 nM | > 500 nM | > 500 nM | IC50 ([2]; Table 2): > 500 nM
– | CC(=O)N1CCC(n2nc(-c3cc4ccc(O)cc4[nH]3)c3c(N)ncnc32)CC1 [Compound 65] | 10 to 25 nM | < 10 nM | > 500 nM | 10 to 25 nM | IC50 [2]: 25 to 50 nM
– | CC(=O)Nc1nc2ccc(-c3ccc4oc(N)nc4c3)cc2s1 [Compound 231] | < 100 nM | – | – | – | IC50 [2]: < 100 nM; IC50 [4]: < 10000 nM; IC50 [5]: < 1000 nM; IC50 [6]: < 100 nM
– | CC(C)n1nc(-c2cc3cccc(Cl)c3[nH]2)c2c(N)ncnc21 [Compound 50] | 100 to 500 nM | < 50 nM | > 500 nM | 100 to 500 nM | IC50 ([2]; Table 2): > 500 nM
– | COc1ccc(Cl)c2cc(-c3nn(C4CCOCC4)c4ncnc(N)c34)[nH]c12 [Compound 61] | > 500 nM | < 25 nM | > 500 nM | > 500 nM | IC50 ([2]; Table 2): > 500 nM
< 1000 nM | COc1ncc(-c2ccc3ncn(C4CCN(C(C)C)CC4)c(=O)c3c2)cc1NS(=O)(=O)c1ccccc1 [Compound 522] | – | – | – | – | –
< 1000 nM | CC1(C)CN(C2CN(C(=O)c3cnc4ccc(-c5ccc6oc(N)nc6c5)cn34)C2)CCN1 [Compound 515] | – | – | – | – | –
– | CN1CC2CN(c3cnc4ccc(-c5ccc6oc(N)nc6c5)nc4n3)CC2C1 (centres unmarked) [Compound 629] | – | – | – | – | IC50 ([2]; Table 4): < 100 nM; IC50 ([3]; Table 4): < 1000 nM; IC50 ([4]; Table 4): > 10000 nM; IC50 ([5]; Table 4): < 1000 nM; IC50 ([6]; Table 4): < 10000 nM
– | CN1CCN(C2CC(n3nc(-c4cc5cc(O)ccc5[nH]4)c4c(N)ncnc43)C2)CC1 (centres unmarked) [Compound 52] | 100 to 500 nM | < 500 nM | > 500 nM | – | IC50 [2]: > 500 nM; IC50 [6]: > 500 nM
< 10000 nM | Nc1nc2cc(-c3ccc4ncc(C(=O)N5CC(N6CC[C@@H](O)C6)C5)n4c3)ccc2o1 [Compound 470] | – | – | – | – | IC50 ([3]; in vitro): < 10000 nM
< 10000 nM | C[C@@H]1CN(C2CN(C(=O)c3cnc4ccc(-c5ccc6oc(N)nc6c5)cn34)C2)CCN1 [Compound 511] | – | – | – | – | IC50 ([6]; in vitro): < 10000 nM
– | CC(C)N1CCC(n2nc(-c3cc4cc(O)ccc4[nH]3)c3c(N)ncnc32)CC1 [Compound 55] | – | < 500 nM | > 500 nM | > 500 nM | IC50 ([2]; Table 2): > 500 nM
– | CC(=O)N1CCC(n2nc(-c3cc4c(Cl)ccc(O)c4[nH]3)c3c(N)ncnc32)CC1 [Compound 69] | 100 to 500 nM | < 5 nM | > 500 nM | > 500 nM | IC50 ([2]; Table 2): > 500 nM
– | Nc1ncnc2c1c(-c1cc3cc(O)ccc3[nH]1)nn2C1CC(N2CCOCC2)C1 (centres unmarked) [Compound 49] | 100 to 500 nM | < 10 nM | > 500 nM | 100 to 500 nM | IC50 [2]: > 500 nM
– | Nc1ncnc2c1c(-c1cc3cccc(Cl)c3[nH]1)nn2C1CCOCC1 [Compound 51] | – | < 50 nM | > 500 nM | 100 to 500 nM | IC50 [2]: > 500 nM; IC50 ([3]; Table 2): 100 to 500 nM
< 10000 nM | C[C@H]1COCCN1C(=O)c1cnc2ccc(-c3ccc4oc(N)nc4c3)cn12 [Compound 483] | – | – | – | – | –
< 10000 nM | CO[C@@H]1CCN(C(=O)c2cnc3ccc(-c4ccc5oc(N)nc5c4)cn23)C1 [Compound 464] | – | – | – | – | –
< 1000 nM | C[C@@H]1CN(C2CN(C(=O)c3cnc4ccc(-c5ccc6oc(N)nc6c5)cn34)C2)CCN1C [Compound 508] | – | – | – | – | –
– | Nc1ncnc2c1c(-c1cc3cc(O)ccc3[nH]1)nn2C1CC(O)C1 (centres unmarked) [Compound 54] | – | < 25 nM | > 500 nM | > 500 nM | IC50 ([2]; Table 2): > 500 nM
< 10000 nM | CN1CCC(n2cnc3ccc(-c4cnc(Cl)c(NS(C)(=O)=O)c4)cc3c2=O)CC1 [Compound 526] | – | – | – | – | –
< 1000 nM | O=C(c1cnc2ccc(-c3cnc(Cl)c(NS(=O)(=O)c4cccc(F)c4)c3)cn12)N1CCOCC1 [Compound 458] | – | – | – | – | –
< 10000 nM | C[C@H]1CN(C2CN(C(=O)c3cnc4ccc(-c5ccc6oc(N)nc6c5)cn34)C2)CCN1 [Compound 510] | – | – | – | – | –
– | Nc1ncnc2c1c(-c1cc3cccc(O)c3[nH]1)nn2C1CCOCC1 [Compound 62] | – | < 5 nM | > 500 nM | > 500 nM | IC50 ([2]; Table 2): > 500 nM; IC50 ([3]; Table 2): 50 to 100 nM
< 10000 nM | Nc1nc2cc(-c3ccc4ncc(C(=O)N5CCC(F)(F)C5)n4c3)ccc2o1 [Compound 471] | – | – | – | – | –
